Active and inactive are the calls of the source. The rule behind the calls is not given here.
Legend:
MEF [1] = assay: Cytotoxicity against C57BL/6 MEF at 100 nM by WST-8 assay; format: cell-based; conditions: mouse, 0.1 µM
MEF [2] = assay: Induction of Oct3/4 gene expression in C57BL/6 MEF at 100 nM after 24 hrs by quantitative RT-PCR analysis relative to control; format: functional, Mus musculus; conditions: for Activity: Mus musculus
MEF [3] = assay: Upregulation of c-Myc gene expression in C57BL/6 MEF at 100 nM after 24 hrs by quantitative RT-PCR analysis relative to control; format: functional, Mus musculus; conditions: for Activity: Mus musculus
[4] = Inhibition of HDAC
MEF [5] = assay: Upregulation of Klf4 gene expression in C57BL/6 MEF at 100 nM after 24 hrs by quantitative RT-PCR analysis relative to control; format: functional, Mus musculus; conditions: for Activity: Mus musculus
MEF [6] = assay: Upregulation of Sox2 gene expression in C57BL/6 MEF at 100 nM after 24 hrs by quantitative RT-PCR analysis relative to control; format: functional, cell-based; conditions: Mus musculus
MEF [7] = assay: Upregulation of Nanog gene expression in C57BL/6 MEF at 100 nM after 24 hrs by quantitative RT-PCR analysis relative to control; format: functional, Mus musculus; conditions: for Activity: Mus musculus

Structure (SMILES): CC(=O)Nc1cn(C)c(C(=O)Nc2cc(C(=O)Nc3cc(C(=O)Nc4cc(C(=O)NCCCC(=O)Nc5cc(C(=O)Nc6cc(C(=O)Nc7cc(C(=O)Nc8cc(C(=O)NCCCN(C)CCCNC(=O)c9ccc(NC(=O)CCCCCCC(=O)NO)cc9)n(C)c8)n(C)c7)n(C)c6)n(C)c5)n(C)c4)n(C)c3)n(C)c2)n1
- Activity (MEF [1]): Non-toxic
- fold change (FC) (MEF [2]): 2
- fold change (FC) (MEF [3]): 1.5
- HDAC inhibition activity [4]: Active
- fold change (FC) (MEF [5]): 2.2
- Activity (MEF [6]): Active
- fold change (FC) (MEF [7]): 2

Structure (SMILES): CN(C)CCCNC(=O)CCNC(=O)c1cc(NC(=O)c2cc(NC(=O)c3cc(NC(=O)c4cc(NC(=O)CCCNC(=O)c5cc(NC(=O)c6cc(NC(=O)c7cc(NC(=O)c8nc(NC(=O)CCNC(=O)CCNC(=O)c9ccc(NC(=O)CCCCCCC(=O)NO)cc9)cn8C)cn7C)cn6C)cn5C)cn4C)cn3C)cn2C)cn1C
- Activity (MEF [1]): Non-toxic
- fold change (FC) (MEF [2]): 2
- fold change (FC) (MEF [3]): 1.8
- HDAC inhibition activity [4]: Active
- Activity (MEF [5]): Active
- Activity (MEF [6]): Active
- fold change (FC) (MEF [7]): 2

Structure (SMILES): CN(C)CCCNC(=O)c1cc(NC(=O)c2cc(NC(=O)c3cc(NC(=O)c4cc(NC(=O)CCCNC(=O)c5cc(NC(=O)c6cc(NC(=O)c7cc(NC(=O)c8nc(NC(=O)CCNC(=O)CCNC(=O)CCNC(=O)CCNC(=O)c9ccc(NC(=O)CCCCCCC(=O)NO)cc9)cn8C)cn7C)cn6C)cn5C)cn4C)cn3C)cn2C)cn1C
- Activity (MEF [1]): Non-toxic
- fold change (FC) (MEF [2]): 3.6
- fold change (FC) (MEF [3]): 1.5
- HDAC inhibition activity [4]: Active
- fold change (FC) (MEF [5]): 1.5
- Activity (MEF [6]): Active
- fold change (FC) (MEF [7]): 2

Structure (SMILES): CN(C)CCCNC(=O)c1cc(NC(=O)c2cc(NC(=O)c3cc(NC(=O)c4cc(NC(=O)CCCNC(=O)c5cc(NC(=O)c6cc(NC(=O)c7cc(NC(=O)c8nc(NC(=O)CCNC(=O)CCNC(=O)c9ccc(NC(=O)CCCCCCC(=O)NO)cc9)cn8C)cn7C)cn6C)cn5C)cn4C)cn3C)cn2C)cn1C
- Activity (MEF [1]): Non-toxic
- fold change (FC) (MEF [2]): 3.1
- Activity (MEF [3]): inactive
- HDAC inhibition activity [4]: Active
- Activity (MEF [5]): inactive
- Activity (MEF [6]): Active
- fold change (FC) (MEF [7]): 2

Structure (SMILES): O=C(CCCCCCC(=O)Nc1ccccc1)NO
- Activity (MEF [2]): inactive
- Activity (MEF [6]): Active
- Activity (MEF [7]): inactive

Structure (SMILES): CONC(=O)CCCCCCC(=O)Nc1ccc(C(=O)NCCC(=O)NCCC(=O)Nc2cn(C)c(C(=O)Nc3cc(C(=O)Nc4cc(C(=O)Nc5cc(C(=O)NCCCC(=O)Nc6cc(C(=O)Nc7cc(C(=O)Nc8cc(C(=O)Nc9cc(C(=O)NCCCN(C)C)n(C)c9)n(C)c8)n(C)c7)n(C)c6)n(C)c5)n(C)c4)n(C)c3)n2)cc1
- Activity (MEF [2]): inactive
- Activity (MEF [6]): Active
- Activity (MEF [7]): inactive

Structure (SMILES): CN(C)CCCNC(=O)c1cc(NC(=O)c2cc(NC(=O)c3cc(NC(=O)c4cc(NC(=O)CCCNC(=O)c5cc(NC(=O)c6cc(NC(=O)c7cc(NC(=O)c8nc(NC(=O)CCNC(=O)CCNC(=O)CCNC(=O)c9ccc(NC(=O)CCCCCCC(=O)NO)cc9)cn8C)cn7C)cn6C)cn5C)cn4C)cn3C)cn2C)cn1C
- Activity (MEF [1]): Non-toxic
- fold change (FC) (MEF [2]): 4.5
- fold change (FC) (MEF [3]): 1.5
- HDAC inhibition activity [4]: Active
- fold change (FC) (MEF [5]): 1.5
- Activity (MEF [6]): Active
- Activity (MEF [7]): Active

Structure (SMILES): CN(C)CCCNC(=O)c1cc(NC(=O)c2cc(NC(=O)c3cc(NC(=O)c4cc(NC(=O)CCCNC(=O)c5cc(NC(=O)c6cc(NC(=O)c7cc(NC(=O)c8nc(NC(=O)CCNC(=O)c9ccc(NC(=O)CCCCCCC(=O)NO)cc9)cn8C)cn7C)cn6C)cn5C)cn4C)cn3C)cn2C)cn1C
- Activity (MEF [1]): Non-toxic
- fold change (FC) (MEF [2]): 2
- Activity (MEF [3]): inactive
- HDAC inhibition activity [4]: Active
- fold change (FC) (MEF [5]): 1.5
- Activity (MEF [6]): Active
- fold change (FC) (MEF [7]): 2

Reference: ChEMBL document CHEMBL2157985, “Development of programmable small DNA-binding molecules with epigenetic activity for induction of core pluripotency genes” (Bioorg Med Chem, 2012)
